Test system: He La cells
Test: growth of He La cells (cell counts in Burker chamber)
Format: cell-based
Method: Hank's solution containing 0,5 % hydrolysate of lactalbumin, 7 % calf serum and with 7 ml 0,15 % sodium bicarbonate and 20-40.000 I.U. of penicillin and streptomycin added per 100 ml was used for the cultivation of the He La cells. pH was 7,4 at the beginning of the experiment. The medium was changed 2 times per week. A suspension of He La cells was obtained by treatment with versene. The glycerol ethers were dissolved in the medium in concentrations of 1, 5, 25 and 100 μg/ml. 1,5 ml of cell suspension, containing 10^6 cells/ml, was added to 18,5 ml medium. The growth was registered by counting the cells in a Burker chamber.

## CCCCCCCCCCCCCCC(COCC(O)CO)OC (centres unmarked) [AII, 1-O-(2-methoxyhexadecyl)-glycerol]
25 μg/ml
  cytostatic action: acted clearly cytostatically
  time to completely suppressed growth: about 15 days
25 μg/ml, 14 days at 37° C
  effect on He La cell growth: growth inhibiting and later on a cell killing effect
Table II, 5 μg/ml, 1 day, controls 54
  Cell counts: 201
Table II, 5 μg/ml, 3 days, controls 122
  Cell counts: 137
Table II, 5 μg/ml, 6 days, controls 186
  Cell counts: 225
Table II, 25 μg/ml, 1 day, controls 54
  Cell counts: 206
Table II, 25 μg/ml, 3 days, controls 122
  Cell counts: 91
Table II, 25 μg/ml, 6 days, controls 186
  Cell counts: 148
Table II, 100 μg/ml, 1 day, controls 54
  Cell counts: 157
Table II, 100 μg/ml, 3 days, controls 122
  Cell counts: All cells dead
Table II, 100 μg/ml, 6 days, controls 186
  Cell counts: All cells dead
Table III, 5 μg/ml, 1 day, controls 78
  Cell counts: 63
Table III, 5 μg/ml, 2 days, controls 98
  Cell counts: 113
Table III, 5 μg/ml, 6 days, controls 228
  Cell counts: 205
Table III, 5 μg/ml, 10 days, controls 359
  Cell counts: 407
Table III, 25 μg/ml, 1 day, controls 78
  Cell counts: 64
Table III, 25 μg/ml, 2 days, controls 98
  Cell counts: 154
Table III, 25 μg/ml, 6 days, controls 228
  Cell counts: 160
Table III, 25 μg/ml, 10 days, controls 359
  Cell counts: 272
Table IV, 1 μg/ml, 2 days, controls 138
  Cell counts: 121
Table IV, 1 μg/ml, 5 days, controls 172
  Cell counts: 271
Table IV, 1 μg/ml, 8 days, controls 520
  Cell counts: 598
Table IV, 1 μg/ml, 11 days, controls 757
  Cell counts: 546
Table IV, 1 μg/ml, 14 days, controls 649
  Cell counts: 557
Table IV, 5 μg/ml, 2 days, controls 138
  Cell counts: 113
Table IV, 5 μg/ml, 5 days, controls 172
  Cell counts: 200
Table IV, 5 μg/ml, 8 days, controls 520
  Cell counts: 488
Table IV, 5 μg/ml, 11 days, controls 757
  Cell counts: 546
Table IV, 5 μg/ml, 14 days, controls 649
  Cell counts: 637
Table IV, 25 μg/ml, 2 days, controls 138
  Cell counts: 107
Table IV, 25 μg/ml, 5 days, controls 172
  Cell counts: 107
Table IV, 25 μg/ml, 8 days, controls 520
  Cell counts: 241
Table IV, 25 μg/ml, 11 days, controls 757
  Cell counts: 112
Table IV, 25 μg/ml, 14 days, controls 649
  Cell counts: 0
Table V, 1 μg/ml, 3 days, controls 210
  Cell counts: 293
Table V, 1 μg/ml, 6 days after transfer, controls 176
  Cell counts: 169
Table V, 1 μg/ml, 8 days, controls 510
  Cell counts: 498
Table V, 5 μg/ml, 3 days, controls 210
  Cell counts: 246
Table V, 5 μg/ml, 6 days after transfer, controls 176
  Cell counts: 136
Table V, 5 μg/ml, 8 days, controls 510
  Cell counts: 517
